Format in all cases: in vivo
For experiment [1], the system named is cotton aphids (Aphis gossypii). The experiment can be described thus: Test method 11: foliar spray on cucumber seedlings inoculated with cotton aphids (formulation per Formulation Example 5). The conditions noted are these: 120 h, sprayed 10 mL/seedling one day after inoculation, after 5 days, 25°C, read-out: control value.
Experiment [2] concerns diamondback moth (Plutella xylostella). The experiment can be described thus: Test method 4: sprayed cabbage foliage cut out, second instar larvae of diamondback moth released. The conditions noted are these: foliar, 120 h, sprayed 20 mL/seedling, five second instar larvae, after 5 days, 25°C. Here is the method: A test compound is formed into a formulation according to the method described in Formulation Example 1, and water containing 0.03% by volume of Shindain (registered trademark) is added thereto to prepare a diluted solution containing the test compound at a predetermined concentration.
A cabbage (Brassicae oleracea) seedling (2 to 3 true leaf stage) planted in a container is sprayed with the diluted solution at a rate of 20 mL/seedling. Thereafter, the foliage portion of the seedling is cut out and placed in a container on which filter paper is laid. Thereto are released five second instar larvae of diamondback moth (Plutella xylostella). After 5 days, the number of surviving insects is counted, and the mortality is determined from the following equation. [formula]

The test system is the same in experiment [3]. The experiment can be described thus: Test method 10: sprayed cabbage seedling, third instar larvae of diamondback moth released. The conditions noted are these: 144 h, sprayed 20 mL/seedling, 10 third instar larvae, after 6 days, 25°C. Here is the method: A test compound is formed into a formulation according to the method described in Formulation Example 5, and water containing 0.03% by volume of Shindain (registered trademark) is added thereto to prepare a diluted solution containing the test compound at a predetermined concentration.
A cabbage (Brassicae oleracea) seedling (3 to 4 true leaf stage) planted in a container is sprayed with the diluted solution at a rate of 20 mL/seedling. Thereafter, 10 third instar larvae of diamondback moth (Plutella xylostella) are released. After 6 days, the number of surviving insects is counted, and the mortality is determined from the following equation. [formula]

For experiment [4], the system named is cotton aphids (Aphis gossypii). The experiment in a line: Test method 1: foliar spray on cucumber seedlings inoculated with cotton aphids (formulation per Formulation Example 1). Also on record: mortality: concentration or dose not given beside the values. Conditions: 120 h, sprayed 10 mL/seedling one day after inoculation, surviving insects examined after 5 days, 25°C, read-out: control value.

The test system of a further experiment is Culex pipiens pallens. The experiment can be described thus: Test method 12: last-instar larvae of Culex pipiens pallens released into diluted solution. The conditions noted are these: 24 h, 30 last-instar larvae, one day later, 25°C. Here is the method:
The test compound is formulated according to the method described in Formulation Example 1, and water is added thereto to prepare a diluted solution containing the test compound at a predetermined concentration. 30 last-instar larvae of Culex pipiens pallens are released into the diluted solution, and the state of the larvae of Culex pipiens is examined one day later to determine the Mortality. The mortality is calculated by the following equation. [formula]

The subject of the next experiment is Aphis gossypii. The experiment in a line: Test method 2: soil irrigation of cucumber seedlings, later inoculated with Aphis gossypii. The conditions noted are these: 144 h, irrigated 5 mL/seedling, inoculated after 7 days, surviving insects examined after 6 days, 25°C, read-out: control value. Here is the method: The test compound is formulated according to the method described in Formulation Example 5, and water is added thereto to prepare a diluted solution containing the test compound at a predetermined concentration. A cucumber (Cucumis sativus) seedling (second true leaf stage) planted in a container is irrigated with the diluted solution at a rate of 5 mL/seedling. After 7 days, the leaf surface of this seedling is inoculated with about 30 Aphis gossypii (whole stage). After 6 days, the number of surviving insects is examined, and the control value is determined by the following formula. [formula] • Characters in the formula represent the following meanings. • Cb: number of test insects in a non-treated section • Cai: number of surviving insects in a non-treated section at the time of investigation • Tb: number of test insects in a treated section • Tai: number of surviving insects in a treated section at the time of investigation Herein, the non-treated section means a section that is subjected to the same operation as that of the treated section except that the test compound is not used.

We go through 25 compounds from EP4596547A1, “HETEROCYCLIC COMPOUND AND HARMFUL ARTHROPOD-CONTROLLING COMPOSITION CONTAINING SAME” (priority 2022, dated 2024).

For the compound `CCSc1c(N(C)C(=O)c2cc(C(F)(F)F)nn2C)nc2ccc(I)cn12` [compound 3], in experiment [1], the mortality at 50 ppm was at least 90%. Moreover, the mortality at 200 ppm in experiment [1] is at least 90%; in experiment [3], at least 80%. The mortality at 500 ppm in experiment [2] is at least 80%; in experiment [4] it was at least 90%. For the same compound, in the experiment with Culex pipiens pallens, the mortality at 3.5 ppm is above 90%.
Turning to `CCSc1c(N(C)C(=O)c2ccc(C(F)(F)F)o2)nc2ccc(I)cn12` [compound 5], in experiment [1], the mortality at 50 ppm was at least 90% and the mortality at 200 ppm was at least 90%. Moreover, in experiment [2], the mortality at 500 ppm was at least 80%. Further, in experiment [4], the mortality at 500 ppm was at least 90%. Also, the mortality at 3.5 ppm with Culex pipiens pallens is above 90%.
Turning to `CCSc1c(N(C)C(=O)c2cnc(C(F)(F)F)s2)nc2ccc(Br)cn12` [compound 8], in experiment [1], the mortality at 50 ppm was at least 90% and the mortality at 200 ppm was at least 90%. The mortality at 500 ppm in experiment [2] was at least 80%. The mortality at 500 ppm in experiment [4] was at least 90%. Further, in the experiment with Culex pipiens pallens, the mortality at 3.5 ppm was above 90%.
With `CCSc1c(N(C)C(=O)c2cnc(C(F)(F)F)s2)nc2ccc(C(F)(F)F)cn12` [compound 9], in experiment [1], the mortality at 50 ppm is at least 90% and the mortality at 200 ppm is at least 90%. For the same compound, the mortality at 500 ppm in experiment [2] was at least 80%. For the same compound, in experiment [4], the mortality at 500 ppm was at least 90%. In addition, the mortality at 3.5 ppm in the experiment with Culex pipiens pallens is above 90%.
In the case of `CCSc1c(N(C)C(=O)c2cnc(C(F)(F)F)s2)nc2cc(I)ccn12` [compound 10], the mortality at 50 ppm in experiment [1] was at least 90%. Further, the mortality at 200 ppm in experiment [1] was at least 90%; in experiment [3], at least 80%. Further, the mortality at 500 ppm in experiment [2] is at least 80%; in experiment [4], at least 90%. For the same compound, the mortality at 3.5 ppm in the experiment on Culex pipiens pallens was above 90%.
In the case of `CCSc1c(N(C)C(=O)c2cnc(C(F)(F)F)s2)nc2cc(Br)ccn12` [compound 11], in the experiment with Aphis gossypii, the mortality at 1000 ppm is at least 90%. In addition, in experiment [1], the mortality at 50 ppm is at least 90% and the mortality at 200 ppm was at least 90%. Also, in experiment [2], the mortality at 500 ppm is at least 80%. Further, in experiment [4], the mortality at 500 ppm was at least 90%. For the same compound, in the experiment on Culex pipiens pallens, the mortality at 3.5 ppm is above 90%.
With `CCSc1c(N(C)C(=O)c2nc(C(F)(F)F)cs2)nc2ccc(I)cn12` [compound 13], the mortality at 200 ppm in experiment [1] was at least 90%. Further, the mortality at 500 ppm in experiment [2] is at least 80%; in experiment [4] it was at least 90%. Moreover, in the experiment with Culex pipiens pallens, the mortality at 3.5 ppm is above 90%.
In the case of `CCSc1c(N(C)C(=O)c2ccn(C(F)F)n2)nc2ccc(I)cn12` [compound 19], in experiment [1], the mortality at 50 ppm was at least 90% and the mortality at 200 ppm is at least 90%. Further, the mortality at 500 ppm in experiment [4] is at least 90%. The mortality at 3.5 ppm in the experiment with Culex pipiens pallens was above 90%.
As for `CCSc1c(N(C)C(=O)c2cnn(C(F)F)c2)nc2ccc(I)cn12` [compound 24], the mortality at 200 ppm in experiment [1] was at least 90%. The mortality at 500 ppm in experiment [2] was at least 80%; in experiment [4] it was at least 90%. Besides, the mortality at 3.5 ppm with Culex pipiens pallens is above 90%.
Take `CCSc1c(N(C)C(=O)c2cn(CC(F)(F)F)nn2)nc2ccc(I)cn12` [compound 27]: the mortality at 200 ppm in experiment [1] was at least 90%; in experiment [3], at least 80%. In addition, the mortality at 500 ppm in experiment [4] is at least 90%. Also, the mortality at 3.5 ppm with Culex pipiens pallens is above 90%.
As for `CCS(=O)(=O)c1c(N(C)C(=O)c2cc(C(F)(F)F)nn2C)nc2ccc(I)cn12` [compound 36], the values for the mortality at 50 ppm in experiment [1] and in experiment [3] (50 ppm) were at least 90% and at least 80%, respectively. The mortality at 200 ppm was at least 90% in experiment [1] and at least 80% in experiment [3].
Take `CCS(=O)(=O)c1c(N(C)C(=O)c2ccc(C(F)(F)F)o2)nc2ccc(I)cn12` [compound 39]: the mortality at 1000 ppm in the experiment on Aphis gossypii was at least 90%. In experiment [1], the mortality at 50 ppm is at least 90% and the mortality at 200 ppm is at least 90%. In addition, in experiment [2], the mortality at 500 ppm was at least 80%. The mortality at 500 ppm in experiment [4] was at least 90%. The mortality at 3.5 ppm with Culex pipiens pallens is above 90%.
With `CC[S+]([O-])c1c(N(C)C(=O)c2cnc(C(F)(F)F)s2)nc2ccc(Br)cn12` (centres unmarked) [compound 41], in the experiment on Aphis gossypii, the mortality at 1000 ppm is at least 90%. Also, the mortality at 50 ppm in experiment [1] is at least 90%. In addition, the mortality at 200 ppm is at least 90% in experiment [1] and at least 80% in experiment [3]. Moreover, the mortality at 500 ppm is at least 80% in experiment [2] and at least 90% in experiment [4].
Regarding `CC[S+]([O-])c1c(N(C)C(=O)c2cnc(C(F)(F)F)s2)nc2ccc(C(F)(F)F)cn12` (centres unmarked) [compound 43], the mortality at 1000 ppm with Aphis gossypii is at least 90%. Moreover, the mortality at 50 ppm in experiment [1] was at least 90%. Moreover, the mortality at 200 ppm was at least 90% in experiment [1] and at least 80% in experiment [3]. The figures for the mortality at 500 ppm in experiment [2] and in experiment [4] were at least 80% and at least 90%, respectively.
Consider `CCS(=O)(=O)c1c(N(C)C(=O)c2cnc(C(F)(F)F)s2)nc2cc(I)ccn12` [compound 46], for which the mortality at 1000 ppm in the experiment with Aphis gossypii was at least 90%. In experiment [1], the mortality at 50 ppm was at least 90% and the mortality at 200 ppm was at least 90%. In experiment [2], the mortality at 500 ppm was at least 80%. Also, the mortality in experiment [4] is at least 90%. Also, the mortality at 3.5 ppm in the experiment on Culex pipiens pallens is above 90%.
With `CC[S+]([O-])c1c(N(C)C(=O)c2cnc(C(F)(F)F)s2)nc2cc(Br)ccn12` (centres unmarked) [compound 47], the mortality at 1000 ppm in the experiment on Aphis gossypii is at least 90%. The mortality at 50 ppm in experiment [1] is at least 90%. In addition, the mortality at 200 ppm in experiment [1] was at least 90%; in experiment [3] it was at least 80%. The mortality at 500 ppm in experiment [2] was at least 80%; in experiment [4], at least 90%.
For `CCS(=O)(=O)c1c(N(C)C(=O)c2nc(C(F)(F)F)cs2)nc2ccc(I)cn12` [compound 50], the mortality at 500 ppm in experiment [2] is at least 80%.
`CCS(=O)(=O)c1c(N(C)C(=O)c2cc(Br)n(C)n2)nc2ccc(I)cn12` [compound 53]: in experiment [1], the mortality at 50 ppm was at least 90% and the mortality at 200 ppm is at least 90%. The mortality at 500 ppm in experiment [2] was at least 80%. In experiment [4], the mortality at 500 ppm is at least 90%.
Turning to `CCS(=O)(=O)c1c(N(C)C(=O)c2cc(OC(F)F)n(C)n2)nc2ccc(I)cn12` [compound 55], the mortality at 3.5 ppm in the experiment on Culex pipiens pallens is above 90%.
For the compound `CCS(=O)(=O)c1c(N(C)C(=O)c2ccn(C3CC3)n2)nc2ccc(I)cn12` [compound 57], the mortality at 200 ppm in experiment [1] is at least 90%. Also, the mortality at 500 ppm in experiment [2] is at least 80%; in experiment [4], at least 90%. Further, the mortality at 3.5 ppm with Culex pipiens pallens was above 90%.
For the compound `CC[S+]([O-])c1c(N(C)C(=O)c2cnn(C(F)(F)F)c2)nc2ccc(I)cn12` (centres unmarked) [compound 60], the results for the mortality at 500 ppm in experiment [2] and in experiment [4] were at least 80% and at least 90%, respectively.
For `CCS(=O)(=O)c1c(N(C)C(=O)c2cnn(C(F)(F)F)c2)nc2ccc(I)cn12` [compound 61] the same measures were at least 80% and at least 90%.
For `CCS(=O)(=O)c1c(N(C)C(=O)c2cnn(C(F)F)c2)nc2ccc(I)cn12` [compound 63] the same measures were at least 80% and at least 90%.
`CCS(=O)(=O)c1c(N(C)C(=O)c2cnn(C3CC3)c2)nc2ccc(I)cn12` [compound 64]: the mortality at 1000 ppm in the experiment on Aphis gossypii was at least 90%. Also, the mortality at 500 ppm in experiment [2] is at least 80%; in experiment [4] it was at least 90%.
With `CCS(=O)(=O)c1c(N(C)C(=O)c2cn(CC(F)(F)F)nn2)nc2ccc(I)cn12` [compound 67], the mortality at 1000 ppm with Aphis gossypii is at least 90%. In addition, in experiment [1], the mortality at 50 ppm was at least 90% and the mortality at 200 ppm is at least 90%. Also, the mortality at 500 ppm in experiment [4] was at least 90%. Also, the mortality at 3.5 ppm with Culex pipiens pallens was above 90%.
